Blank lines part the entries; values can stand above or below the molecule they belong to.
Legend:
[1] = test system: Human endothelial cells (EA.hy 926); assay: Inhibition of endothelial cell migration (wound); format: cell-based; settings: Homo sapiens, EA.hy 926; EA.hy926, 14 h, 10 nM; read-out: % Inhibition of migration with respect to respective 0 h control
Protocol: Cell line: Human endothelial cells (EA.hy 926); test item: IS 181; treatment regimen: single addition; concentration range: 0.1 μg/ml-1 mg/ml; sera condition: medium containing 10% FBS. […] The cells were then subjected to serum starved with medium containing 1% FBS for 24 hours. 24 hours post serum starvation, the wounds (straight line) were created in the middle of the well using a sterile 200 μl pipette tip. Cells were washed twice using DMEM followed by treatment with different concentrations of IS 181 in DMEM containing 10% FBS. Images of wound were taken at 0 h and 14 h at three points in single well and distance of wound closure was measured using Image J software. End point: image analysis of cell migration of different concentrations of IS 181 treated cells at 0 hour and after 14 hours of treatment. Percentage inhibition in cell migration of different concentrations of IS 181 treated cells were calculated after 14 h of treatment with respect to respective 0 hours (FIG. 13). […] (FIGS. 14A-14B).

[2] = test system: Human endothelial cells (EA.hy 926); assay: Inhibition of FBS stimulated endothelial cell proliferation (MTT); format: cell-based
Protocol: Cell line: Human endothelial cells (EA.hy 926); test item: IS 181: treatment regimen: multiple additions (3)-72 hours; concentration range: 1 6 g/ml to 5000 6 g/ml (triplicate wells); sera condition: medium containing 10% FBS. […] The cells were then subjected to complete serum starvation. The cells were retreated with 10% FBS to stimulate cellular proliferation. […] Inhibition of FBS stimulated cell proliferation was measured using MTT assay. End point: percentage inhibition of FBS stimulated cell proliferation. Positive controls: anthralin; paclitaxel.

[3] = test system: HaCaT (Human keratinocyte); assay: LDH enzyme release assay; format: cell-based
Protocol: (§1) For testing Apoptosis the Human Keratinocytes (HaCaT) cell line has been employed. The growth conditions are DMEM containing 1% FBS. […] Test concentration range is IS181 is tested at the highest (Qualitative analysis) effective concentrations selected on the basis of Quantitative JC-1 assay. The method of estimation is Mitochondrial membrane depolarization by JC-1 assay (Early apoptosis), LDH enzyme release (Necrosis). Treatment regimen & time points are JC-1 assay—Single addition, 20 h; LDH assay—Single addition, 24 h; Positive control: Triton-X-100, Doxorubicin-hydrochloride
End-point: Percentage increase in LDH activity in treated cells with respect to untreated.

[4] = test system: HaCaT (Human keratinocyte) cell line; assay: Mitochondrial membrane potential by JC-1 assay; format: cell-based
Protocol: as §1
Quantitative effect on Δψm (Red fluorescence/Green fluorescence) in HaCaT cells post 20 hours of treatment. […] Evaluation (Qualitative and quantitative) of differential JC-1 staining in treated cells after 20 h on incubation with the test peptides.

[5] = test system: Human PBMCs; assay: Cell viability (MTT assay) in PBMCs; format: cell-based
Protocol: (§2) Cell Lines/Cells: Human Keratinocytes (HaCaT); Human melanoma (SK-MEL-28); Human PBMCs. Test Item: IS181 Treatment regimen: Single addition—24 h, ^#Multiple additions (3)−72 h; Concentration range: 1 ng/ml-2 mg/ml (triplicate wells); Sera Condition: […] Method of estimation: MTT assay. […] Positive control: Triton-X-100, Doxorubicin Hydrochloride.

[6] = test system: Human melanoma (SK-MEL-28); assay: Cell viability (MTT assay) in SK-MEL-28; format: cell-based
Protocol: as §2

[7] = test system: IL-17; assay: IL-17 secretion in ConA stimulated splenocytes; format: cell-based, mouse; settings: splenocytes + ConA, 24 h
Protocol: (§3) Cell lines: mouse splenocytes; test item: IS181; treatment regimen: single addition—24 hours; concentration range: 10 μg/ml-5000 μg/ml.A) Identification of non-cytotoxic concentrations: splenocytes were treated with IS181 for 24 hours. Effect on cell viability was assessed by MTT assay. Concentrations leading to >75% cell viability were selected for IL-17 assay. B) IL-17 assay: splenocytes were treated with IS181 in presence of ConA stimulation for 24 hours. Supernatants were collected and stored at −20° C. till analysed. Levels of IL-17 were analysed in supernatants by ELISA. Percent inhibition of IL-17 secretion was calculated with reference to ConA treated levels. Positive control: curcumin.

[8] = Cell viability of splenocytes (MTT); format: cell-based, mouse; settings: mouse
Protocol: as §3

[9] = test system: IL-23; assay: IL-23 secretion in LPS+IFN-γ stimulated THP-1; format: cell-based, Human; settings: THP-1 + LPS + IFN-γ, 24 h
Protocol: (§4) Cell lines: Human monocytic cell line (THP-1); test item: IS181: treatment regimen; single addition—24 hours; concentration range: 10 μg/ml-5000 μg/ml. A) Identification of non-cytotoxic concentrations: THP-1 cells were treated with IS181 for 24 hours; effect on cell viability was assessed by MTT assay; concentrations leading to >75% cell viability were selected for IL-23 assay. […] Positive control: curcumin. […] Since supernatants corresponding to 5 concentrations were to be tested for […], we also tested 1 mg/ml.

[10] = test system: VEGF; assay: VEGF inhibition in keratinocytes (ELISA); format: cell-based, Human; settings: HaCaT
Protocol: Cell lines: Human Keratinocytes (HaCaT); test item: IS181; treatment regimen: single addition—24 hours; concentration range: 0.1 μg/ml-100 μg/ml. […] Cells were serum-starved for another 24 hours (0% FBS). Cells were treated with IS181 for 24 hours. Supernatants were collected and stored at −20° C. till analysed. Levels of VEGF were analysed in supernatants by ELISA. Percent inhibition of VEGF secretion was calculated with reference to untreated levels. Positive control: curcumin; retinoic acid (at non-cytotoxic concentrations).

[11] = test system: Human Keratinocytes (HaCaT); assay: Annexin-V assay; format: cell-based; settings: 10 μM-50 μM
Protocol: Cell lines: Human Keratinocytes (HaCaT); test Item (TI): IS181; Treatment regimen: treated twice (once after 24 hours)-48 hours; concentration range: 100 6 g/ml-5000 6 g/ml. […] (c) cells were treated with IS181 for 24 hours; (d) after 24 hours, cells were again treated with IS181 for 24 hours; (e) after 48 hours of first treatment, cells were stained with Annexin-V reagent and acquired on flow cytometer; (f) fold increase in apoptotic cells (early and late apoptotic) and necrotic cells was calculated with respect to untreated control cells. Positive control: Curcumin. […] (FIG. 4)

[12] = Cell viability of THP-1 (MTT); format: cell-based, Human; settings: human
Protocol: as §4

Molecule: CC(=O)O[C@H]1C(=O)[C@@]2(C)[C@H]([C@H](OC(=O)c3ccccc3)[C@]3(O)C[C@H](OC(=O)[C@H](O)[C@@H](NC(=O)c4ccccc4)c4ccccc4)C(C)=C1C3(C)C)[C@]1(OC(C)=O)CO[C@@H]1C[C@@H]2O [Paclitaxel]
inhibition at 0.01 µM [1]: 71%
Absorbance (Mean ± SD) at 540 nm ([2]; EA.hy926, 10 nM): 0.36 ± 0.012
Absorbance (Mean ± SD) at 540 nm ([2]; EA.hy926, 50 nM): 0.23 ± 0.008
Absorbance (Mean ± SD) at 540 nm ([2]; EA.hy926, 100 nM): 0.19 ± 0.006
Absorbance (Mean ± SD) at 540 nm ([2]; EA.hy926, 500 nM): 0.16 ± 0.003
Absorbance (Mean ± SD) at 540 nm ([2]; EA.hy926, 1000 nM): 0.06 ± 0.001
inhibition at 0.01 µM ([2]; Homo sapiens, EA.hy 926, EA.hy926, 10 nM, read-out: ¾ Inhibition of FBS stimulated cell growth): 27.6%
inhibition at 0.05 µM ([2]; Homo sapiens, EA.hy 926, EA.hy926, 50 nM, read-out: ¾ Inhibition of FBS stimulated cell growth): 58.9%
inhibition at 0.1 µM ([2]; Homo sapiens, EA.hy 926, EA.hy926, 100 nM, read-out: ¾ Inhibition of FBS stimulated cell growth): 62.7%
inhibition at 0.5 µM ([2]; Homo sapiens, EA.hy 926, EA.hy926, 500 nM, read-out: ¾ Inhibition of FBS stimulated cell growth): 70.1%
inhibition at 1 µM ([2]; Homo sapiens, EA.hy 926, EA.hy926, 1000 nM, read-out: ¾ Inhibition of FBS stimulated cell growth): 89.4%

% Increase with respect to untreated (LDH) ([3]; 0.01%): −30.27%
LDH Activity (mU/ml) ([3]; 0.01%): 44.11 mU/ml
% Increase with respect to untreated (LDH) ([3]; 0.1%): ***95.84%
LDH Activity (mU/ml) ([3]; 0.1%): 123.88 mU/ml
Molecule: Triton X-100 [reference compound]
Green fluorescence intensity (RFU) ([4]; 0.01%): 20.5 ± 17.68 RFU
Red fluorescence intensity (RFU) ([4]; 0.01%): 33.25 ± 32.17 RFU
Red fluorescence intensity/Green fluorescence intensity ([4]; 0.01%): *1.62
Green fluorescence intensity (RFU) ([4]; 0.1%): 22.33 RFU
Red fluorescence intensity (RFU) ([4]; 0.1%): 16.33 RFU
Red fluorescence intensity/Green fluorescence intensity ([4]; 0.1%): *0.73
cytotoxicity [5]: 70% to 77%
cytotoxicity [6]: > 90%

Molecule: COc1cc(/C=C/C(=O)CC(=O)/C=C/c2ccc(O)c(OC)c2)ccc1O [Curcumin, reference compound]
inhibition at 1 µM ([7]; Mus musculus, Splenocyte, 1 μM, read-out: % Inhibition of IL-17 wrt Control (ConA)): 40.5%
inhibition at 10 µM ([7]; Mus musculus, Splenocyte, 10 μM, read-out: % Inhibition of IL-17 wrt Control (ConA)): 42.5%
Conc. of IL-17 ([7]; 1 μM): 27.7 pg/mL
Conc. of IL-17 ([7]; 10 μM): 26.7 pg/mL
viability at 24 h [8]: > 75%
viability at 24 h, 1 µM [8]: 97.5%
viability at 24 h, 10 µM [8]: 82%
viability at 24 h, 20 µM [8]: 40.4%
inhibition at 1 µM ([9]; Homo sapiens, 1 μM, read-out: % Inhibition of IL-23 wrt Control (LPS + IFN-γ)): 91.6%
inhibition at 10 µM ([9]; Homo sapiens, 10 μM, read-out: % Inhibition of IL-23 wrt Control (LPS + IFN-γ)): 90.6%
Conc. of IL-23 ([9]; 1 μM): 7.1 pg/mL
Conc. of IL-23 ([9]; 10 μM): 7.9 pg/mL
VEGF inhibition ([10]; 20 uM): did not result in any VEGF inhibition
Conc. of VEGF ([10]; 24 h, 1 μM): 3059.1 pg/mL
inhibition at 1 µM ([10]; Homo sapiens, 24 h, 1 μM, read-out: % Inhibition of VEGF wrt untreated (basal) levels): 14.9%
increase in early apoptotic cells [11]: 12.8-152.5 fold
increase in late apoptotic cells [11]: 2.4-138.4 fold
viability at 24 h, 1 µM [12]: 94.7%
viability at 24 h, 10 µM [12]: 103%
viability at 24 h, 20 µM [12]: 107%

— patent US10538561B2, “Peptide for treating inflammatory diseases” (priority 2015, dated 2020)
